For seven molecules, GI50 and TGI results are on record in PubChem BioAssay (NCI).

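Grown in 96-well plates, cells were treated for 48 hours with each compound at five concentrations. Insufficient inhibition: endpoint recorded as highest concentration tested. GI50 marks 50% less growth. At the TGI there is no net growth.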

Experiment in all cases: NCI-60 cell line screen, 48 h
Assay [1] has as its system A498 renal.
Assay [2] has as its system ACHN renal.
The test system of assay [3] is HCC-2998 colon.
Assay [4] deals with M14 melanoma.
In assay [5] the test system is MDA-MB-231 breast.
Assay [6] has as its system MDA-MB-435.
Assay [7] has as its system NCI-H460 lung.
Assay [8] has as its system SF-268 CNS.
Assay [9] deals with SN12C renal.
Assay [10] deals with SNB-19 CNS.

On to `Cc1cc(Br)c2nsnc2c1[N+](=O)[O-]`, for which the GI50 is 5.06 µM in assay [1]; 4.39 µM in assay [2]; 2.07 µM in assay [3]; 1.77 µM in [4]; 5.01 µM in assay [5]; 2.86 µM in [6]. The GI50 was 3.15 µM in assay [7], 2 µM in assay [8], 4.93 µM in [9] and 7.63 µM in assay [10]. Moreover, the TGI was 15 µM in [1]; 15.5 µM in assay [2]; 4.44 µM in assay [3]; 3.32 µM in [4]; 15.6 µM in assay [5]; 11.1 µM in [6]. In addition, the TGI in assay [7] came out at 10.7 µM; in [8], 5.16 µM; in [9], 17.2 µM; in [10] it was 20.6 µM.
Regarding `O=c1[nH]cc(CO)c(=O)[nH]1`, the GI50 in [1], in assay [2], in assay [3], in assay [4], in [5] and in assay [6] was above 100 µM each time. For the same molecule, the GI50 in assay [7], in assay [8], in [9] and in [10] was above 100 µM throughout. The TGI in assay [1], in assay [2], in assay [3], in [4], in assay [5] and in [6] was above 100 µM in each case. Besides, the TGI in assay [7], in assay [8], in [9] and in [10] was above 100 µM throughout.
Consider `CCc1ccc(Oc2nccc(-c3c(-c4ccc(F)cc4)ncn3C3CCNCC3)n2)cc1`, for which the GI50 in [1] is 3.55 µM; in assay [2], 4.77 µM; in [3], 3.94 µM; in assay [4], 5.46 µM; in assay [5] it was 5.16 µM; in assay [6] it was 4.47 µM. In addition, the GI50 in assay [7] was 4.28 µM; in assay [8], 6.76 µM; in assay [9] it was 5.19 µM; in [10], 7.84 µM. In addition, the TGI is 9.82 µM in [1]; 13.6 µM in [2]; 7.61 µM in [3]; 10.8 µM in [4]; 13.6 µM in assay [5]; 8.77 µM in assay [6]. Besides, the TGI in [7] came to 8.49 µM; in assay [8], 15.4 µM; in [9], 13.9 µM; in assay [10], 17.2 µM.
Consider `O=C(NCCSSCCNC(=O)/C(Cc1ccc(O)c(Br)c1)=N/O)/C(Cc1ccc(O)c(Br)c1)=N/O`, for which the TGI in [1] is 14.7 µM; in assay [2], 5.77 µM; in assay [3], 8.11 µM; in assay [4], 7.22 µM; in assay [5] it was 8.26 µM; in assay [6], above 24.9 µM. The TGI in [7] is above 20.6 µM; in assay [8], 9.75 µM; in assay [9], 5.73 µM; in assay [10], 7.96 µM.
As to `O=C1c2cccc3cccc(c23)C(=O)N1CC#Cc1ccc2c3c(cccc13)C(=O)N(CCN1CCNCC1)C2=O`, the GI50 is 15.4 µM in assay [1]; 2.75 µM in assay [2]; 2.1 µM in assay [3]; 2.53 µM in assay [4]; 1.85 µM in [5]; 1.86 µM in assay [6]. For the same molecule, the GI50 in [7] is 1.92 µM; in assay [8], 13.5 µM; in [9] it was 1.71 µM; in [10], 1.96 µM. Further, the TGI turned out to be 31.1 µM in assay [1]; 7.96 µM in assay [2]; 4.94 µM in assay [3]; 6.19 µM in assay [4]; 3.67 µM in assay [5]; 3.47 µM in assay [6]. In addition, the TGI in assay [7] was 3.6 µM; in assay [8] it was 35.5 µM; in [9], 3.68 µM; in [10] it was 4.18 µM.
In the case of `Cc1ccc(NC(C(=O)c2ccccc2)c2ccccc2)cc1` (stereo not given), the GI50 in assay [1] is 2.91 µM; in assay [2], 7.94 µM; in [3], 4.52 µM; in assay [4], 4 µM; in assay [5] it was 13 µM; in assay [6], 2.63 µM. In addition, the GI50 in assay [7] was 2.8 µM; in [8] it was 3.1 µM; in assay [9], 3.55 µM; in assay [10] it was 4.26 µM. Besides, the TGI in assay [1] is 15.5 µM; in assay [2], above 100 µM; in assay [3], above 100 µM; in assay [4], 33.4 µM; in [5] it was above 100 µM; in assay [6], 12.7 µM. Further, the TGI in [7] is 11.8 µM; in assay [8], 14.2 µM; in assay [9], above 100 µM; in assay [10], above 100 µM.
In the case of `COc1ccccc1N(C(C)=O)C1=C(Cl)C(=O)c2ccccc2C1=O`, the GI50 was 1.54 µM in assay [1]; 1.43 µM in [2]; 2.23 µM in [3]; 1.88 µM in assay [4]; 2.03 µM in assay [5]; 1.9 µM in assay [6]. The GI50 is 3.17 µM in assay [7], 3.19 µM in [8], 2.83 µM in assay [9] and 3.16 µM in assay [10]. The TGI in assay [1] was 7.69 µM; in assay [2], 2.73 µM; in assay [3] it was 8.61 µM; in assay [4], 5.91 µM; in assay [5], 6.23 µM; in assay [6], 4.55 µM. The TGI is 12.2 µM in assay [7], 12.5 µM in [8], 12.1 µM in assay [9] and above 40.8 µM in [10].
